From patent US9062074B2, “(9E)-15-(2-pyrrolidin-1-yl-ethoxy)-7,12,25-trioxa-19,21,24-triaza-tetracyclo[18.3.1.1(2.5).1(14,18)]hexacosa-1(24),2,4,9,14,16,18(26),20,22-nonaene citrate salt” (CTI BioPharma Corp., priority 2009, dated 2015)
Where a name gives a salt, the structure may show the parent alone. Each block holds one compound with its values, some of them ahead of it.

What was measured:
Assay type in all cases: physicochemical
[1] = Solubility assessment (solvent added in 10 volume aliquots)
Procedure: For each solvent investigated, approximately 8 mg of compound 1 was weighed into an 8 ml screw top glass vial. The solvent was added in 10 volume aliquots and the mixture sonicated and warmed (with a hot-air gun) to encourage dissolution. If dissolution was not achieved after the addition of 100 volumes of solvent, a further 100 volumes was added.

[2] = Gravimetric Vapour Sorption (GVS)
Procedure: Sorption isotherms were obtained using a SMS DVS Intrinsic moisture sorption analyser, controlled by SMS Analysis Suite software. The sample temperature was maintained at 25° C. by the instrument controls. The humidity was controlled by mixing streams of dry and wet nitrogen, with a total flow rate of 200 ml.min^−1. The relative humidity was measured by a calibrated Rotronic probe (dynamic range of 1.0-100% RH), located near the sample. The weight change, (mass relaxation) of the sample as a function of % RH was constantly monitored by the microbalance (accuracy ±0.005 mg). Typically 5-20 mg of sample was placed in a tared mesh stainless steel basket under ambient conditions. The sample was loaded and unloaded at 40% RH and 25° C. (typical room conditions). A moisture sorption isotherm was performed as outlined below (2 scans giving 1 complete cycle). The standard isotherm was performed at 25° C. at 10% RH intervals over a 0.5-90% RH range.
The hygroscopicity of the citrate was investigated by carrying out a gravimetric vapour sorption experiment on Batch 4. A sample of approximately 20 mg was held at 25° C. whilst the humidity of its environment was changed through two complete cycles. […] The sample takes longer to reach equilibrium in the early stages of the experiment. This may be due to displacement of residual solvent.

[3] = Polymorphism assessment (XRPD after 25° C./50° C. cycles in solvent)
Procedure: The vials were then placed in a humidity chamber and subjected to cycles of 25° C./50° C. (8 hour cycles) for 24 hours. At the end of this time the samples were examined and then left with loosened lids to allow for evaporation of the solvent. Those samples which had dried out were then transferred to a quartz array, whilst those for which there was still solvent present, were filtered under vacuum onto a sinter. The samples were then analysed by XRPD to assess their crystalline state and form.

[4] = Solubility assessment (solvent added in 10 volume aliquots); remark: listed apart in the source
[5] = Thermogravimetric Analysis (TGA)
Procedure: Thermogravimetric Analysis (TGA) data were collected on a Mettler TGA/SDTA 851e equipped with a 34 position autosampler. The instrument was temperature calibrated using certified indium. Typically 5-30 mg of each sample was loaded onto a pre-weighed aluminium crucible and was heated at 10° C.min^−1 from ambient temperature to 350° C. A nitrogen purge at 50 ml.min^−1 was maintained over the sample. The instrument control and data analysis software was STARe v9.10.

[6] = Phase stability by XRPD after storage at 40° C. and 75% relative humidity for one week; conditions: solid form by low resolution XRPD after one week
Procedure: Condition 2 (Low Resolution)
X-Ray Powder Diffraction patterns were also collected on a Bruker D8 diffractometer using Cu K[…] radiation (40 kV, 40 mA), θ-2θ goniometer, and divergence of V4 and receiving slits, a Ge monochromator and a Lynxeye detector. The instrument is performance checked using a certified Corundum standard (NIST 1976). The software used for data collection was Diffrac Plus XRD Commander v2.5.0 and the data were analysed and presented using Diffrac Plus EVA v 11.0.0.2 or v 13.0.0.2. Samples were run under ambient conditions as flat plate specimens using powder as received. Approximately 15 mg of the sample was gently packed into a cavity cut into polished, zerobackground (510) silicon wafer. The sample was rotated in its own plane during analysis. The details of the data collection are:
The samples which had been prepared for the collection of low resolution XRPD traces were placed in a chamber maintained at 40° C. and 75% relative humidity. After one week the samples were reanalysed by low resolution XRPD (Condition 2), to check for phase changes. It can be seen that no phase change has occurred, and that citrate salts of the invention are stable for at least one week under these conditions.

[7] = Differential Scanning Calorimetry (DSC); conditions: heated at 10° C.min^−1
Procedure: Differential Scanning Calorimetry (DSC) data were collected on a Mettler DSC 823e equipped with a 34 position auto-sampler. The instrument was calibrated for energy and temperature using certified indium. Typically 0.5-3 mg of each sample, in a pin-holed aluminium pan, was heated at 10° C.min^−1 from 25° C. to 350° C. A nitrogen purge at 50 ml.min^−1 was maintained over the sample. The instrument control and data analysis software was STARe v9.10.

solubility in organic solvents ([1]; organic solvents of the screen): extremely limited
hygroscopicity ([2]; GVS, 0% RH to 90% RH): not hygroscopic
maximum weight difference ([2]; between 0% RH and 90% RH, 25° C.): less than 1 % w/w
solid form of recovered solid (XRPD) ([3]; aqueous solution allowed to evaporate): amorphous
solid form of residues (XRPD) ([3]; organic solvent screening samples): Form 1
level at which the salt dissolves in water [4]: ≥ 100000 µg/mL
Compound: C1=C2COC/C=C/COCc3cc(ccc3OCCN3CCCC3)Nc3nccc(n3)C(=C1)O2 [citrate, 9E-15-(2-pyrrolidin-1-yl-ethoxy)-7,12,25-trioxa-19,21,24-triaza-tetracyclo[18.3.1.1(2,5).1(14,18)]hexacosa-1(24),2,4,9,14,16,18(26),20,22-nonaene citrate]

Compound: C1=C2COC/C=C/COCc3cc(ccc3OCCN3CCCC3)Nc3nccc(n3)C(=C1)O2 [Compound I, 9E-15-(2-pyrrolidin-1-yl-ethoxy)-7,12,25-trioxa-19,21,24-triaza-tetracyclo[18.3.1.1(2,5).1(14,18)]hexacosa-1(24),2,4,9,14,16,18(26),20,22-nonaene]
total dissolution in solvent screen ([1]; 11 solvents, up to 200 volumes): total dissolution was only achieved in water

Thermogravimetric Analysis weight change ([5]; 160 to 250° C.): −20% w/w 160 to 250 °C
Thermogravimetric Analysis weight change ([5]; ambient to 160° C.): −0.3% w/w ambient to
Phase Stability 1 wk @ 40° C./75% RH [6]: Crystalline Form 1
Differential Scanning Calorimetry complex endotherm onset (significant thermal event) [7]: onset 176 °C
Compound: C1=C2COC/C=C/COCc3cc(ccc3OCCN3CCCC3)Nc3nccc(n3)C(=C1)O2 [Batch 6]
